{"source": "paper PMC10046037", "about": "“GABRG2 Variants Associated with Febrile Seizures” (Biomolecules, 2023)", "target": "T1, α1β3γ2 GABAA receptor, γ2S325L variant (Homo sapiens, UniProt P14867+P18507+P28472, S325L)", "T1 construct": "expressed in transfected cells; host or cells: HEK293T", "T1 sequence (P14867 28-456)": "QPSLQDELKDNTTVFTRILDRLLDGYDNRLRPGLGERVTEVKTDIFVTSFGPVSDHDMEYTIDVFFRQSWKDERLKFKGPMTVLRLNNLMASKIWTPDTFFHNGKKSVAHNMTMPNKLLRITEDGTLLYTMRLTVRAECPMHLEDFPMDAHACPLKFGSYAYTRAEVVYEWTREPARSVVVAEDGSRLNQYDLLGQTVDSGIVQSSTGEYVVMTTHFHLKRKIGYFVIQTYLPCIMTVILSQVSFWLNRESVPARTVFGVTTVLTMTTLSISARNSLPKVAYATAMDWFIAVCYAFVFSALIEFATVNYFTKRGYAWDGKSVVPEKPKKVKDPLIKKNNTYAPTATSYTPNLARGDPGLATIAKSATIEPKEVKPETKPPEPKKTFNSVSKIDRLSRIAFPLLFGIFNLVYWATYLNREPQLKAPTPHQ", "T1 sequence (P28472 26-473 isoform P28472-2)": "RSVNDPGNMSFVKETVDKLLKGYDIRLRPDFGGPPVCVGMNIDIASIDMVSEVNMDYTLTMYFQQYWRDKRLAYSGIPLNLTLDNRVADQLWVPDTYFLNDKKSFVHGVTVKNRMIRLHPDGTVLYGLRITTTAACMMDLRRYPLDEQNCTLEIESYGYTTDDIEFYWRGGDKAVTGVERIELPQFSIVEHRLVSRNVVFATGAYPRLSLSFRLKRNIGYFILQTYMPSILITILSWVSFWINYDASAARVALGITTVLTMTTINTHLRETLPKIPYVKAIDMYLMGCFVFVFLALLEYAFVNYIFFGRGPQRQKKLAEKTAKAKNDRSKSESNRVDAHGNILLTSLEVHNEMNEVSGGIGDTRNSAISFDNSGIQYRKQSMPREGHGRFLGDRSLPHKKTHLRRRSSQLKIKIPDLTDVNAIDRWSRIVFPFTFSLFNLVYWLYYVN", "T1 sequence (P18507 40-475 S325L)": "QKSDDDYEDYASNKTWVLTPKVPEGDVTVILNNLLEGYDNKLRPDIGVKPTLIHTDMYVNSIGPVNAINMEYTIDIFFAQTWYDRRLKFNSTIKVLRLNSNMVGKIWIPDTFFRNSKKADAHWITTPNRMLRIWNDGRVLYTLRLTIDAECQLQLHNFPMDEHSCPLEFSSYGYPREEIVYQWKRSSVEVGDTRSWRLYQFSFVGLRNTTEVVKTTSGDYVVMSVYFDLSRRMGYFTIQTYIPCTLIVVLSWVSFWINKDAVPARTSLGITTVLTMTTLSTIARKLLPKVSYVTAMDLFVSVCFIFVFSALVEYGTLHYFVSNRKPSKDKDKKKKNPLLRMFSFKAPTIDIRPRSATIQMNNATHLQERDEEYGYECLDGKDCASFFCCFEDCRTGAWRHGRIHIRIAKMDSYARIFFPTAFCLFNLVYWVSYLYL", "assay": "Automated patch clamp of GABA-elicited currents (SyncroPatch 384PE), γ2S325L", "assay_type": "cell-based", "details": "mean", "method": "The coding sequences of human α1 (GABRA1, NM_000806), β3 (GABRB3, NM_021912), and γ2 (GABRG2, NM_198904.2) GABAAR subunits were subcloned into the pcDNA3.1 expression vectors (Invitrogen, Waltham, MA, USA).\nHEK293T cells (ATCC, CRL-11268) were cultured at 37 °C in a humidified 5% CO2 incubator and maintained in Dulbecco’s modified Eagle’s medium (Invitrogen) supplemented with 10% fetal bovine serum (Life Technologies, Carlsbad, CA, USA), and 100 IU/mL of penicillin/streptomycin (Life Technologies). For the expression experiments, 4 × 10^5 cells were transfected using polyethylenimine (PEI) reagent (40 kD, Polysciences, Warrington, PA, USA) at a DNA: to transfection reagent ratio of 1:2.5 and harvested 36 h after transfection. To express WT and variant α1β3γ2 receptors, a total of 3 µg of α1, β3, and γ2 (WT or mutant) subunit cDNAs were transfected at a ratio of 1:1:1 into 60 mm culture dishes. For the mock-transfected condition, an empty pcDNA3.1 vector was added for a final cDNA transfection amount of 3 μg. For the electrophysiology experiments, 2.5 × 10^5 cells were plated in 100 mm culture dishes and transfected after 24 h with 3 μg of cDNA of each α1, β3, γ2 (wild-type or mutant) subunit, using X-tremeGENE HP DNA transfection Reagent (Roche Diagnostics, Basel, Switzerland), following the manufacturer’s protocol. Recordings were obtained forty-eight hours after transfection.\nWhole-cell patch clamp recordings were conducted according to the manufacturer’s standard procedure for the SyncroPatch 384 [31]. Whole-cell voltage-clamp recordings were performed at room temperature on HEK293T cells 48 h after transfection with GABAAR subunits, using the SyncroPatch 384PE (Nanion Technologies, Munich, Germany). Cells, at a concentration of 400,000 cells/mL, were harvested in suspension in external solution containing 140 mM of NaCl, 2 mM of CaCl2, 4 mM of KCl, 1 mM of MgCl2, 5 mM of glucose, and 10 mM of HEPES (pH 7.4 with NaOH, 298 mOsm). The cells were loaded in a multi-hole (4 holes per well) 384-well Nanion patch clamp (NPC) chip with a thick borosilicate glass bottom and an average resistance pore size of […]. Built-in electrophysiological protocols were used, and the data were digitized using PatchControl 384 (Nanion Technologies) application. Using PatchControl 384, electrophysiological parameters, such as seal resistance, capacitance, and series resistance, were determined for each well after the application of a test pulse, and subsequently monitored over time. […] The currents were normalized to the maximal response of each well, and the concentration–response curves were calculated from single-point additions. The EC50 values for each variant or wild-type receptor were calculated across multiple wells for each experimental condition.", "data": [{"smiles": "NCCCC(=O)O", "note": "[GABA, γ-aminobutyric acid]", "values": [{"measurement": "Deactivation", "setting": "1 mM GABA for 5 ms, HEK293T, -80 mV", "value": 307.7, "unit": "ms"}, {"measurement": "IMAX (maximal GABA-evoked peak current)", "setting": "1 mM GABA for 5 ms, HEK293T", "value": 0.78, "unit": "nA"}, {"measurement": "IMAX variant/IMAX WT", "setting": "1 mM GABA", "value": 39.07, "unit": "%"}, {"measurement": "Rise Time", "setting": "10–90% rise time, 1 mM GABA for 5 ms, HEK293T", "value": 68.01, "unit": "ms"}]}]}
